Measured values published in paper PMC10407933, “Four of a Kind: A Complete Collection of ADP-Ribosylated Histidine Isosteres Using Cu(I)- and Ru(II)-Catalyzed Click Chemistry” (The Journal of Organic Chemistry, 2023).
Like-named read-outs stand apart in the source and are kept apart here. Starred links: 1 amine or outer side, 2 acyl side, 3 side chain; linkers in the order of their positions; H or OH if unused. Non-standard residues stand in square brackets, D forms with d. Residues, ends and D or L forms follow the SMILES beside them. X2 = Nc1ncnc2c1ncn2[C@@H]1O[C@H](COP(=O)(O)OP(=O)(O)OC[C@H]2O[C@@H](n3nncc3C[C@H](N[*:1])C(=O)[*:2])[C@H](O)[C@@H]2O)[C@@H](O)[C@H]1O; X1 = Nc1ncnc2c1ncn2[C@@H]1O[C@H](COP(=O)(O)OP(=O)(O)OC[C@H]2O[C@H](n3nncc3C[C@H](N[*:1])C(=O)[*:2])[C@H](O)[C@@H]2O)[C@@H](O)[C@H]1O

Key:
[1] = 0.1 M NaOH; for additional peaks of identical mass (isomerization) after NaOH treatment: LC-MS
Method: With all four ADPr-His* conjugates available, we next evaluated their stability under various conditions in a liquid-chromatography mass-spectrometry (LC-MS) based assay. The conditions surveyed (NH2OH, TFA, and NaOH) were selected because of their frequent occurrence in ADP-ribosylome-focused proteomics studies.
(§1) Samples were extracted at different time points (2, 4, 8, 24, 48, and 169 h) and quenched with TFA prior to LC-MS injection. Peptide degradation was quantified by analyzing the UV-trace (260 nm) using Xcalibur software. […] Enzymatic turnover of the various peptides was assessed by monitoring AMP release directly (NudT16) or converting released ADPr via NudT5 to AMP. AMP was measured using the AMP-Glo assay (Promega). Samples are background corrected and normalized to NudT16 activity.
Figure S3. UV-trace (260 nm) of the obtained LC-MS spectra after treating β-configured 1,5-disubstituted triazole 24 with 0.1 M NaOH at various time points.
(1 picture or pasted object on this page, not shown here)
Figure S6. UV-trace (260 nm) of the obtained LC-MS spectra after treating α-configured 1,5-disubstituted triazole 29 with 0.1 M NaOH at various time points.

[2] = molecular target: ARH3 (Homo sapiens, UniProt Q9NX46); settings: 10 μM peptide, 0.5 μM hydrolase, 30 C, AMP-Glo luminescence, normalized to NudT16; for ARH3-mediated hydrolysis of the N-glycosidic linkage: 60 min, 50 mM TrisHCl pH 8, 200 mM NaCl, 10 mM MgCl2, 1 mM DTT, 0.2 μM human NUDT5
ARH3, sequence (Q9NX46 whole entry): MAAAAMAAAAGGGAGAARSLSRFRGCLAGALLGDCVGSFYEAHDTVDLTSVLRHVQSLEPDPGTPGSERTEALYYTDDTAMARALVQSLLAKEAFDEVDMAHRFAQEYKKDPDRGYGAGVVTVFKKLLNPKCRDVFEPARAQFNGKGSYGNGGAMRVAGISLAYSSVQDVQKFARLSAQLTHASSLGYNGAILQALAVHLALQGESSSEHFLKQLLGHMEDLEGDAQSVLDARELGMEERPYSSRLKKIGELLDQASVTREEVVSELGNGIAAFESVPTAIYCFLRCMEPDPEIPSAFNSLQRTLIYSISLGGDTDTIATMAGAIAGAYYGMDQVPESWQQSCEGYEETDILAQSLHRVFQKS
Method: as §1

[3] = 0 h, quenched with TFA, LC-MS UV-trace 260 nm
[4] = 2 h, quenched with TFA, LC-MS UV-trace 260 nm
[5] = 4 h, quenched with TFA, LC-MS UV-trace 260 nm
[6] = 48 h, quenched with TFA, LC-MS UV-trace 260 nm
[7] = 169 h, quenched with TFA, LC-MS UV-trace 260 nm
[8] = 8 h, quenched with TFA, LC-MS UV-trace 260 nm
[9] = 24 h, quenched with TFA, LC-MS UV-trace 260 nm

SMILES	additional peaks of identical mass (isomerization) after NaOH treatment ([1]; 24 h)	ARH3-mediated hydrolysis of the N-glycosidic linkage [2]	Accumulated isomers (%) [1, 3]	Accumulated isomers (%) [1, 4]	Intact peptide (%) [1, 4]	Accumulated isomers (%) [1, 5]	Accumulated isomers (%) [1, 6]	Intact peptide (%) [1, 6]	Accumulated isomers (%) [1, 7]	Intact peptide (%) [1, 7]	original peptide present after NaOH treatment ([1]; after 12 h, time course, quenched with TFA, LC-MS UV-trace 260 nm)	Intact peptide (%) [1, 3]	Intact peptide (%) [1, 5]	Accumulated isomers (%) [1, 8]	Intact peptide (%) [1, 8]	Accumulated isomers (%) [1, 9]	Intact peptide (%) [1, 9]	conversion by ARH3 ([2]; within the 1 h reaction, pH 8)
CC(C)C[C@H](NC(=O)CNC(=O)[C@H](C)NC(=O)CNC(=O)[C@H](Cc1cn([C@@H]2O[C@H](COP(=O)(O)OP(=O)(O)OC[C@H]3O[C@@H](n4cnc5c(N)ncnc54)[C@H](O)[C@@H]3O)[C@@H](O)[C@H]2O)nn1)NC(=O)[C@H](Cc1ccccc1)NC(=O)[C@@H](N)[C@@H](C)O)C(=O)N[C@H](C(=O)N[C@H](C(=O)N1CCC[C@H]1C(=O)N[C@H](C(=O)N[C@@H](CC(=O)O)C(=O)N[C@@H](CCCCN)C(=O)O)C(C)C)C(C)C)C(C)C [compound 23]	5%	unaffected	–	–	–	–	–	–	–	–	–	–	–	–	–	–	–	–
CC(C)C[C@H](NC(=O)CNC(=O)[C@H](C)NC(=O)CNC(=O)[C@H](Cc1cnnn1[C@@H]1O[C@H](COP(=O)(O)OP(=O)(O)OC[C@H]2O[C@@H](n3cnc4c(N)ncnc43)[C@H](O)[C@@H]2O)[C@@H](O)[C@H]1O)NC(=O)[C@H](Cc1ccccc1)NC(=O)[C@@H](N)[C@@H](C)O)C(=O)N[C@H](C(=O)N[C@H](C(=O)N1CCC[C@H]1C(=O)N[C@H](C(=O)N[C@@H](CC(=O)O)C(=O)N[C@@H](CCCCN)C(=O)O)C(C)C)C(C)C)C(C)C [compound 24] (H-TF[X2]GAGLVVPVDK-OH)	–	unaffected	0%	39%	61%	48%	71%	29%	71%	29%	38%	–	–	–	–	–	–	–
CC(C)C[C@H](NC(=O)CNC(=O)[C@H](C)NC(=O)CNC(=O)[C@H](Cc1cn([C@H]2O[C@H](COP(=O)(O)OP(=O)(O)OC[C@H]3O[C@@H](n4cnc5c(N)ncnc54)[C@H](O)[C@@H]3O)[C@@H](O)[C@H]2O)nn1)NC(=O)[C@H](Cc1ccccc1)NC(=O)[C@@H](N)[C@@H](C)O)C(=O)N[C@H](C(=O)N[C@H](C(=O)N1CCC[C@H]1C(=O)N[C@H](C(=O)N[C@@H](CC(=O)O)C(=O)N[C@@H](CCCCN)C(=O)O)C(C)C)C(C)C)C(C)C [compound 28]	12%	very weakly	–	–	–	–	–	–	–	–	–	–	–	–	–	–	–	–
CC(C)C[C@H](NC(=O)CNC(=O)[C@H](C)NC(=O)CNC(=O)[C@H](Cc1cnnn1[C@H]1O[C@H](COP(=O)(O)OP(=O)(O)OC[C@H]2O[C@@H](n3cnc4c(N)ncnc43)[C@H](O)[C@@H]2O)[C@@H](O)[C@H]1O)NC(=O)[C@H](Cc1ccccc1)NC(=O)[C@@H](N)[C@@H](C)O)C(=O)N[C@H](C(=O)N[C@H](C(=O)N1CCC[C@H]1C(=O)N[C@H](C(=O)N[C@@H](CC(=O)O)C(=O)N[C@@H](CCCCN)C(=O)O)C(C)C)C(C)C)C(C)C [compound 29] (H-TF[X1]GAGLVVPVDK-OH)	–	capable of hydrolyzing	0%	26%	74%	40%	62%	38%	62%	38%	–	100%	60%	51%	49%	61%	39%	~50%
